Reference: patent publication US10654845B2, “2-(het)aryl-substituted fused bicyclic heterocycle derivatives as pesticides” (BAYER CROPSCIENCE AKTIENGESELLSCHAFT, priority 2015, dated 2020)

Legend:
[1] = log P by HPLC on reversed-phase column (C18), EEC Directive 79/831 Annex V.A8
Excerpt: Called log P (HCOOH) in the table.
Called log P (neutral) in the table.

[2] = system: Phaedon cochleariae; assay: Phaedon cochleariae spray test; assay type: in vivo; settings: after 7 days, beetle larvae killed; for pest or weed control at 500 g/ha: Phaedon cochleariae, 168 h, read-out: efficacy in %
Procedure: Phaedon cochleariae-Spray Test
Solvent: 78.0 parts by weight of acetone
(§1) • 1.5 parts by weight of dimethylformamide Emulsifier: alkylaryl polyglycol ether
(§2) To produce a suitable preparation of active compound, 1 part by weight of active compound is dissolved using the stated parts by weight of solvent and made up with water containing an emulsifier concentration of 1000 ppm until the desired concentration is attained. To produce further test concentrations, the preparation is diluted with emulsifier-containing water.
After 7 days, the efficacy in % is determined. 100% means that all the beetle larvae have been killed; 0% means that no beetle larvae have been killed.

[3] = system: Myzus persicae; assay: Myzus persicae spray test (Chinese cabbage leaf discs); assay type: in vivo; settings: after 6 days, aphids killed
Procedure: Myzus persicae Spray Test
Solvent: 78 parts by weight of acetone
as §1, §2
Discs of Chinese cabbage leaves (Brassica pekinensis) infested by all stages of the green peach aphid (Myzus persicae) are sprayed with an active compound preparation of the desired concentration.
After 6 days, the efficacy in % is determined. 100% means that all the aphids have been killed; 0% means that no aphids have been killed.

[4] = reversed-phase HPLC column (C18), pH 7.8, log P (neutral), preparation examples, neutral range, pH 7.8
[5] = LC-MS acidic range, pH 2.7 (HCOOH), C18, 55° C.
[6] = LC-MS neutral range, pH 7.8, C18, 55° C.
[7] = reversed-phase HPLC column (C18), pH 2.7, logP-acidic, LC-MS acidic range, pH 2.7 (HCOOH), C18, 55° C.
[8] = reversed-phase HPLC column (C18), pH 7.8, logP-neutral, LC-MS neutral range, pH 7.8, C18, 55° C.

For CCS(=O)(=O)c1ccc(C(=O)O)nc1-c1nc2cc(C(F)(F)F)ncc2n1C [5-(Ethylsulphonyl)-6-[3-methyl-6-(trifluoromethyl)-3H-imidazo[4,5-c]pyridin-2-yl]pyridine-2-carboxylic acid], the chromatographic logP [1, 4] was 0.76.

Work on Cn1c(-c2nc(F)ccc2F)nc2cc(C(F)(F)F)ncc21 [Ex. IX-2, 2-(3,6-Difluoropyridin-2-yl)-3-methyl-6-(trifluoromethyl)-3H-imidazo[4,5-c]pyridine] yielded a chromatographic logP [1, 4] of 2.11.

CCSc1ccc(F)nc1-c1nc2cc(C(F)(F)F)ncc2n1C [Ex. XI-2, 2-[3-(Ethylsulphanyl)-6-fluoropyridin-2-yl]-3-methyl-6-(trifluoromethyl)-3H-imidazo[4,5-c]pyridine] showed a chromatographic logP [1, 4] of 2.73.

For CCS(=O)(=O)c1ccc(F)nc1-c1nc2cc(C(F)(F)F)ncc2n1C [Ex. XIII-2, 2-[3-(Ethylsulphonyl)-6-fluoropyridin-2-yl]-3-methyl-6-(trifluoromethyl)-3H-imidazo[4,5-c]pyridine], the chromatographic logP [1, 4] was 2.3.

In the case of CCSc1ccc(NC(=O)C2CC2)nc1-c1nc2cc(C(F)(F)F)ncc2n1C [Example 1], the logP-acidic ([1]; pH 2.7) was 2.80, the logP-neutral ([1]; pH 7.8) was 2.79 and the efficacy in % ([2]; 500 g/ha) was 100%.

CCC(=O)Nc1ccc([S+]([O-])CC)c(-c2nc3cc(C(F)(F)F)ncc3n2C)n1 (centres unmarked) [Example 2] showed a logP-acidic ([1]; pH 2.7) of 2.33, a logP-neutral ([1]; pH 7.8) of 2.25 and an efficacy in % ([2]; 500 g/ha) of 100%. It also gave an efficacy in % ([3]; 500 g/ha) of 90%.

Compound CCS(=O)(=O)c1ccc(NC(=O)C(F)(F)F)nc1-c1nc2cc(C(F)(F)F)ncc2n1C [Example 3] has a logP-acidic ([1]; pH 2.7) of 2.74, a logP-neutral ([1]; pH 7.8) of 1.73 and an efficacy in % ([2]; 500 g/ha) of 100%. The efficacy in % ([3]; 500 g/ha) was 100%.

Compound CCS(=O)(=O)c1ccc(NC(=O)C(F)(F)C(F)(F)F)nc1-c1nc2cc(C(F)(F)F)ncc2n1C [Example 4] has a logP-acidic [1, 5] of 3.17, a logP-neutral [1, 6] of 1.94 and an efficacy in % ([2]; 500 g/ha) of 100%. It also gave an efficacy in % ([3]; 500 g/ha) of 100%.

Work on CCSc1ccc(S(=O)(=O)CC)c(-c2nc3cc(C(F)(F)F)ncc3n2C)n1 [Example 5, 2-[6-(Ethylsulphanyl)-3-(ethylsulphonyl)pyridin-2-yl]-3-methyl-6-(trifluoromethyl)-3H-imidazo[4,5-c]pyridine] yielded a chromatographic logP [1, 7] of 3.19, a chromatographic logP [1, 4] of 3.14 and a chromatographic logP [1, 8] of 3.14.

With CCSc1ccc(NC(=O)C(F)(F)F)nc1-c1nc2cc(C(F)(F)F)ncc2n1C [Example 6] the logP-acidic ([1]; pH 2.7) was 3.18 and the efficacy in % ([2]; 500 g/ha) was 100%.

CCS(=O)(=O)c1ccc(NC(=O)CC2CC2)nc1-c1nc2cc(C(F)(F)F)ncc2n1C [Example 7] gave a logP-acidic ([1]; pH 2.7) of 2.71, a logP-neutral ([1]; pH 7.8) of 2.66 and an efficacy in % ([2]; 500 g/ha) of 100%. It also gave an efficacy in % ([3]; 500 g/ha) of 90%.

Work on CCS(=O)(=O)c1ccc(C(=O)OC)nc1-c1nc2cc(C(F)(F)F)ncc2n1C [Example 12, Methyl 5-(ethylsulphonyl)-6-[3-methyl-6-(trifluoromethyl)-3H-imidazo[4,5-c]pyridin-2-yl]pyridine-2-carboxylate] yielded a chromatographic logP [1, 7] of 2.17, a chromatographic logP [1, 4] of 2.17 and a chromatographic logP [1, 8] of 2.17.

For CCS(=O)(=O)c1ccc(S(=O)(=O)CC)c(-c2nc3cc(C(F)(F)F)ncc3n2C)n1 [Example 15, 2-[3,6-Bis(ethylsulphonyl)pyridin-2-yl]-3-methyl-6-(trifluoromethyl)-3H-imidazo[4,5-c]pyridine], the chromatographic logP [1, 7] was 2.31, the chromatographic logP [1, 4] was 2.27 and the chromatographic logP [1, 8] was 2.28. The pest or weed control at 500 g/ha ([2]; 500 g/ha) was 100%.

Compound CCS(=O)(=O)c1ccc(Oc2cc(C(F)(F)F)n[nH]2)nc1-c1nc2cc(C(F)(F)F)ncc2n1C [Example 17] has a logP-acidic ([1]; pH 2.7) of 2.77 and a logP-neutral ([1]; pH 7.8) of 2.69.

Work on CCSc1ccc(NC(=O)c2ccccc2)nc1-c1nc2cc(C(F)(F)F)ncc2n1C [Example 19] yielded a logP-acidic ([1]; pH 2.7) of 3.36.

For CCS(=O)(=O)c1ccc(N(S(C)(=O)=O)S(C)(=O)=O)nc1-c1nc2cc(C(F)(F)F)ncc2n1C [Example 25], the logP-acidic ([1]; pH 2.7) was 2.47.

With CCS(=O)(=O)c1ccc(NS(C)(=O)=O)nc1-c1nc2cc(C(F)(F)F)ncc2n1C [Example 26, N-{5-(Ethylsulphonyl)-6-[3-methyl-6-(trifluoromethyl)-3H-imidazo[4,5-c]pyridin-2-yl]pyridin-2-yl}methanesulphonamide] the chromatographic logP [1, 7] was 1.92, the chromatographic logP [1, 4] was 0.85 and the chromatographic logP [1, 8] was 0.85. It also gave a pest or weed control at 500 g/ha ([2]; 500 g/ha) of 100%.

Compound CCSc1ccc(NC(=O)CC)nc1-c1nc2cc(C(F)(F)F)ncc2n1C [Example 27] has a logP-acidic ([1]; pH 2.7) of 2.73, a logP-neutral ([1]; pH 7.8) of 2.62 and an efficacy in % ([2]; 500 g/ha) of 100%.

In the case of CCS(=O)(=O)c1ccc(SC)nc1-c1nc2cc(C(F)(F)F)ncc2n1C [Example 28, 2-[3-(Ethylsulphonyl)-6-(methylsulphanyl)pyridin-2-yl]-3-methyl-6-(trifluoromethyl)-3H-imidazo[4,5-c]pyridine], the chromatographic logP [1, 7] was 2.81, the chromatographic logP [1, 4] was 2.75 and the chromatographic logP [1, 8] was 2.75.

For CCS(=O)(=O)c1ccc(SCc2ccccc2)nc1-c1nc2cc(C(F)(F)F)ncc2n1C [Example 30, 2-[6-(Benzylsulphanyl)-3-(ethylsulphonyl)pyridin-2-yl]-3-methyl-6-(trifluoromethyl)-3H-imidazo[4,5-c]pyridine], the chromatographic logP ([1]; pH 2.7) was 3.81 and the chromatographic logP ([1]; pH 7.8) was 3.72.

For CCNC(=O)c1ccc(S(=O)(=O)CC)c(-c2nc3cc(C(F)(F)F)ncc3n2C)n1 [Example 32], the logP-acidic ([1]; pH 2.7) was 2.29, the logP-neutral ([1]; pH 7.8) was 2.22 and the efficacy in % ([2]; 500 g/ha) was 100%.

CCNC(=S)c1ccc(S(=O)(=O)CC)c(-c2nc3cc(C(F)(F)F)ncc3n2C)n1 [Example 35] gave a logP-acidic ([1]; pH 2.7) of 3.17 and a logP-neutral ([1]; pH 7.8) of 3.14.

CCS(=O)(=O)c1ccc([S+]([O-])Cc2ccccc2)nc1-c1nc2cc(C(F)(F)F)ncc2n1C (centres unmarked) [Example 39] showed a logP-acidic ([1]; pH 2.7) of 2.66 and a logP-neutral ([1]; pH 7.8) of 2.66.

CCS(=N)(=O)c1ccc(S(=O)(=O)CC)c(-c2nc3cc(C(F)(F)F)ncc3n2C)n1 (centres unmarked) [Example 41, 2-[6-(S-Ethylsulphonimidoyl)-3-(ethylsulphonyl)pyridin-2-yl]-3-methyl-6-(trifluoromethyl)-3H-imidazo[4,5-c]pyridine] gave a chromatographic logP [1, 7] of 1.78, a chromatographic logP [1, 4] of 1.79 and a chromatographic logP [1, 8] of 1.79.

In the case of CCS(=O)(=O)c1ccc(Sc2ccccc2)nc1-c1nc2cc(C(F)(F)F)ncc2n1C [Example 42], the logP-acidic [1, 5] was 3.68 and the logP-neutral [1, 6] was 3.64.

CCS(=O)(=O)c1ccc([S+](C)[O-])nc1-c1nc2cc(C(F)(F)F)ncc2n1C (centres unmarked) [Example 44] showed an efficacy in % ([3]; 500 g/ha) of 90%.

With CCS(=O)(=O)c1ccc(S(C)(=O)=O)nc1-c1nc2cc(C(F)(F)F)ncc2n1C [Example 45] the logP-acidic ([1]; pH 2.7) was 2.08 and the logP-neutral ([1]; pH 7.8) was 2.08.

CCS(=O)(=O)c1ccc(C(N)=O)nc1-c1nc2cc(C(F)(F)F)ncc2n1C [Example 46] showed a logP-acidic [1, 5] of 1.78, a logP-neutral [1, 6] of 1.68 and an efficacy in % ([2]; 500 g/ha) of 100%.

With CCS(=O)(=O)c1ccc(S(=O)(=O)NC)nc1-c1nc2cc(C(F)(F)F)ncc2n1C [Example 47] the logP-acidic ([1]; pH 2.7) was 2.15 and the logP-neutral ([1]; pH 7.8) was 2.08.

Work on CCNS(=O)(=O)c1ccc(S(=O)(=O)CC)c(-c2nc3cc(C(F)(F)F)ncc3n2C)n1 [Example 48] yielded a logP-acidic ([1]; pH 2.7) of 2.36 and a logP-neutral ([1]; pH 7.8) of 2.30.

CCS(=O)(=O)c1ccc(S(=O)(=O)NC(C)C)nc1-c1nc2cc(C(F)(F)F)ncc2n1C [Example 49, 5-(Ethylsulphonyl)-N-isopropyl-6-[3-methyl-6-(trifluoromethyl)-3H-imidazo[4,5-c]pyridin-2-yl]pyridine-2-sulphonamide] showed a chromatographic logP [1, 7] of 2.56, a chromatographic logP [1, 4] of 2.49 and a chromatographic logP [1, 8] of 2.49.

CCS(=O)(=O)c1ccc(S(=O)(=O)N(C)C)nc1-c1nc2cc(C(F)(F)F)ncc2n1C [Example 50] showed a logP-acidic ([1]; pH 2.7) of 2.54 and a logP-neutral ([1]; pH 7.8) of 2.47.

For CCCOc1ccc(S(=O)(=O)CC)c(-c2nc3cc(C(F)(F)F)ncc3n2C)n1 [Example 51], the logP-acidic ([1]; pH 2.7) was 3.37, the logP-neutral ([1]; pH 7.8) was 3.36 and the efficacy in % ([2]; 500 g/ha) was 100%.

In the case of CCS(=O)(=O)c1ccc(NC(=O)c2cccnc2)nc1-c1nc2cc(C(F)(F)F)ncc2n1C [Example 54], the logP-acidic ([1]; pH 2.7) was 2.08, the logP-neutral ([1]; pH 7.8) was 2.12 and the efficacy in % ([2]; 500 g/ha) was 100%.

CCS(=O)(=O)Nc1ccc(S(=O)(=O)CC)c(-c2nc3cc(C(F)(F)F)ncc3n2C)n1 [Example 59] gave a logP-acidic ([1]; pH 2.7) of 2.08, a logP-neutral ([1]; pH 7.8) of 0.90 and an efficacy in % ([3]; 100 g/ha) of 100%.

With CCS(=O)(=O)c1ccc(NC(=O)Cc2ccccc2)nc1-c1nc2cc(C(F)(F)F)ncc2n1C [Example 68] the efficacy in % ([2]; 500 g/ha) was 100%.

CCS(=O)(=O)c1ccc(NC(=O)c2ccc(Cl)cc2)nc1-c1nc2cc(C(F)(F)F)ncc2n1C [Example 73] showed a logP-acidic ([1]; pH 2.7) of 3.37, a logP-neutral ([1]; pH 7.8) of 3.37 and an efficacy in % ([2]; 100 g/ha) of 100%.

In the case of CCS(=O)(=O)c1ccc(NC(C)=O)nc1-c1nc2cc(C(F)(F)F)ncc2n1C [N-[5-Ethylsulphonyl-6-[3-methyl-6-(trifluoromethyl)imidazo[4,5-c]pyridin-2-yl]-2-pyridyl]acetamide], the chromatographic logP [1, 4] was 2.01.
